US10160948B2, “Pluripotent embryonic-like stem cells, compositions, methods and uses thereof” (ABT HOLDING COMPANY, priority 1999, dated 2018)

What was measured:
pluripotent stem cells = assay: Proliferation and phenotypic responses to bioactive factors: pluripotent cells; format: cell-based
Excerpt: Having access to mixed populations of progenitor stem cells, progenitor stem cell clones, and pluripotent stem cell clones permits one to address the influence of various bioactive factors (e.g. recombinant growth factors, purified compounds, and novel inductive factors) on the growth characteristics and phenotypic expression of these stem cells.
Cryopreserved cells are thawed and plated in MSC-1 at 5, 10, or 20×10^3 cells per well of gelatinized 24-well plates following the standard protocol. Twenty-four hours after initial plating the medium is changed to testing medium (TM) 1 to 6 (TM-1, TM-2, TM-3, TM-4, TM-5, or TM-6). TM-1 to TM-4 consist of Ultraculture (cat. no. 12-725B, lot. nos. OMO455 [TM-1], 1M1724 [TM-2], 2M0420 [TM-3], or 2M0274 [TM-4], Bio-Whittaker, Walkersville, Md.), medium (EMEM or Opti-MEM 0.01 mM β-mercaptoethanol), and 1% (v/v) antibiotic-antimycotic, pH 7.4. TM-5 consists of 98% (v/v) medium, 1% (v/v) HS, and 1% (v/v) antibiotic-antimycotic, pH 7.4. TM-6 consists of 98.5% (v/v) medium, 0.5% (v/v) HS, and 1% (v/v) antibiotic-antimycotic, pH 7.4. […] Four testing media (TM#'s 1-4), each containing various concentrations of Ultraculture, were used as. […] The four Ultraculture-based testing media were: TM-1=15% (v/v) Ultraculture (Lot no. OMO455): 84% (v/v) medium: 1% (v/v) antibiotics; TM-2=15% (v/v) Ultraculture (Lot no. 1M1724): 84% (v/v) medium: 1% (v/v) antibiotics; TM-3=50% (v/v) Ultraculture (Lot no. 2M0420): 49% (v/v) medium: 1% (v/v) antibiotics; and TM-4=75% (v/v) Ultraculture (Lot no. 2M0274): 24% (v/v) medium: 1% (v/v) antibiotics. Pre-incubation for 24 hr in testing medium alone is used to wash out any potential synergistic components in the MSC-1 medium. Twenty-four hours later the testing medium is changed to one of the following. For controls, TM-1 to TM-6 alone is used. To identify clones of progenitor cells, the medium is replaced with TM-1 to TM-6 containing 2 μg/ml insulin (Sigma), an agent that accelerates the appearance of phenotypic expression markers in progenitor cells (TABLE 12). To identify clones of pluripotent cells, the medium is replaced with TM-1 to TM-6 containing 10^−10 to 10^−6 M dexamethasone (Sigma), a general non-specific lineage-inductive agent (TABLE 13). Control and treated cultures are propagated for an additional 30-45 days with medium changes every other day. Four culture wells are used per concentration per experiment. During the 0-45 day time period the cultures are examined subjectively for changes in morphological characteristics on a daily basis. Alterations in phenotypic expression are correlated with the days of treatment and associated insulin or dexamethasone concentrations. The experiment is then repeated utilizing these parameters to confirm objectively the phenotypic expression markers using established histological, functional/histochemical, ELICA/flow cytometry, and molecular assays (TABLE 13).

[1] = test system: human mesenchymal stem cells; assay: Insulin/dexamethasone analysis to identify progenitor and pluripotent cells (morphology); format: cell-based
Description: Aliquots of CM-SkM, CF-SkM, NHDF, PAL#3, and PAL#2 cells were thawed and plated individually at 10,000 cells per well in 1% gelatin-coated 24-well plates [Corning, Corning, N.Y.] utilizing PM-B. After 24 hr PM-B was removed and replaced with either control medium, insulin testing medium, or dexamethasone testing medium. Control medium consisted of 98% (v/v) Opti-MEM containing 0.01 mM β-mercapto-ethanol, 1% (v/v) HS3, and 1% antibiotic-antimycotic solution. Insulin testing medium consisted of control medium containing 2 μg/ml insulin [Sigma]. Dexmethasone testing medium was composed of 98% Opti-MEM, 0.01 mM β-mercaptoethanol, 1% serum [HS3, HS9 (horse serum, lot number 90H-0701, Sigma) or FBS (fetal bovine serum, lot no. 3000L, Atlanta Biologicals, Norcross, Ga.)] and 1% antibiotic-antimycotic solution. […]
Discernible changes in phenotypic expression of the cells were assayed morphologically. These morphological tissue cellular types were identical to those previously noted in avian and mouse mesenchymal stem cells incubated with insulin or dexamethasone and extensively analyzed by histochemical and immunochemical procedures (Young et al., 1995; Rogers et al., 1995; Young et al., 1993; Young, 1999; Young et al., 1998). […]
Discernible changes in phenotypic expression of the putative mesenchymal stem cells were determined using morphological criteria. […]

insulin
Proliferation, Pluripotent: number of times the agent increased the DNA content per well versus its respective control (pluripotent stem cells): 1 times | activity on pluripotent and progenitor stem cells, in words (pluripotent stem cells; pluripotent and progenitor cells): stimulated lineage-progression in all progenitor cells, but had no measurable effect on pluripotent cells | Phenotypic Expression, Pluripotent (pluripotent stem cells; presence and approximate distribution of differentiated phenotypes within the culture wells): 0 | effect on phenotypic expression at 80 cell doublings [1]: had no effect on the cells
